US7829666B2, “Maurotoxin, PI1 and HSTX1 derivatives” (Cellpep Pharma Inc., priority 2000, dated 2010)
Bridge positions count the residues as written; N and C are the ends. Square brackets hold non-standard residues; d marks the D form. Peptide text beside a SMILES is read from it. Abu = CC[C@H](N)C(=O)O

Legend:
[1] = tested on: Ca2+-activated K+ channels, e.g. apamin-sensitive SK channels; conditions: background statement; cited from earlier work
[2] = molecular target: T1, mammalian voltage-gated Kv1.2 channel subtype (Homo sapiens, UniProt P16389); conditions: background statement; picomolar or nanomolar concentration range; cited from earlier work
[3] = Lethality/toxicity in C57/BL6 mice, intracerebroventricular injection; type: in vivo; conditions: mouse, in vivo
Excerpt: (§1) The MTX derivatives, as well as the MTX structurally homologous Pi1 or HsTx1 derivatives, of the invention are thus of potential therapeutic value for treating mammalian (including human) pathologies that are associated with a dysfunctioning of Ca^2+-activated and/or voltage-gated Kv channel subtypes. Such pathologies include immune and/or neurological diseases like multiple sclerosis, Parkinson's and Alzheimer's diseases, both thought to be associated with a dysfunctioning of Ca^2+-activated and/or voltage-gated K^+ channel subtype(s). The axonal impulse propagation ensures a continued transmission of nervous signals to remote targets. In a number of neuropathies, the nervous conduction is either slowed down or locked. This could be linked to alteration or functional changes of myelinated fibres (demyelinisation or alteration of the membrane properties at the Ranvier nodes). Among these neuropathies are multiple sclerosis (central nervous system; CNS) and Guillain-Barr syndrome (peripheral nervous system). It is now well-admitted that alteration of the axonal function is related to the presence of voltage-gated (Kv) K^+ channels (there is a widespread distribution of Kv1.1 and Kv1.2 channel subtypes in nerve terminals throughout the brain, whereas Kv channels—independent of their subtypes—are considered to be ubiquitous, including in the peripheral nervous system), and possibly Ca^2+-activated K^+ channels. In the previously cited neuropathies, Ca^2+-activated K^+ channels and Kv channels are either abnormally exposed in demyelinated or inflammatory lesions, or over-expressed. Therefore, selective K^+-channel blockers, including Ca^2+-activated K^+ channel-acting and/or Kv-acting MTX/Pi1/HsTx1-derived peptides such as [Q15]-MTX, Pi1 amidated at C-terminus, [Abu9, 19, 29, 34]-MIX, are of potential therapeutic value as symptomatic therapy of multiple sclerosis and related neuropathies, as well as for use as selective immuno-suppressant drugs by their blocking action on Ca^2+-activated and/or Kv channels. Further, it can be speculated that such peptide blockers, in the CNS, could enhance transmitter release in pathways affected by progressive neurodegenerative diseases such as Alzheimer's disease.

rat Kv1.3 channels = rat Kv1.3 channels (Rattus norvegicus, UniProt P15384); conditions: background statement; cited from earlier work
[4] = tested on: Ca2+-activated K+ channels; assay: Activity of MTX analog on Ca2+-activated K+ channels; type: cell-based
Excerpt: (§2) In one preferred derivative, the substitution of the MTX half-cystine residues (by amino butyrate derivatives) located at positions 9, 19, 29, and 34 (corresponding by numbers to C2, C4, C6, and C8) results in a two disulfide-bridged MTX analog, i.e. VSCTGSKDAbuYAPCRKQTGAbuPNAKCINKSAbuKCYGAbu-NH2 [SEQ. ID NO. 8], with novel, non-native arrangement of the half-cystine pairings (Cys3-Cys24 and Cys13-Cys31).

[5] = molecular target: T1, mammalian voltage-gated Kv1.2 channel subtype; assay: Blocking activity on voltage-gated Kv1.2 channel; type: cell-based
Excerpt: as §2
An alternative approach to replacement of Cys residues with Abu is the replacement of one or two amino acid residues in natural MTX with other residues which prevent the folding of the molecule in such a way that the unconventional C1-C5, C2-C6, C3-C7 and C4-C8 disulfide bridge arrangement can occur. For instance, if neither of the residues at positions 32 and 33 is a Gly or Pro residue, the folding is altered in such a way that the MTX derivative adopts the conventional C1-C5, C2-C6, C3-C7 and C4-C8 of Pi1 and HsTx1. In particular, replacement of the Gly residue at position 33 by an Ala residue substitution, forming [A33]-MTX [SEQ. ID NO. 4], is effective. Substitution of Arg14 and/or Lys15 by Gln to give [Q14]-MTX [SEQ. ID NO. 5], [Q15]-MTX [SEQ. ID NO. 6] or [Q14,Q15]-MTX [SEQ. ID NO. 7] also induces half-cystine pairings between Cys3-Cys24, Cys9-Cys29, Cys13-Cys31 and Cys19-Cys34.

C57/BL6 mice = assay: Lethality/toxicity in C57/BL6 mice, intracerebroventricular injection; type: in vivo
Excerpt: as §1

rat Kv1.3 channels, sequence (P15384 whole entry): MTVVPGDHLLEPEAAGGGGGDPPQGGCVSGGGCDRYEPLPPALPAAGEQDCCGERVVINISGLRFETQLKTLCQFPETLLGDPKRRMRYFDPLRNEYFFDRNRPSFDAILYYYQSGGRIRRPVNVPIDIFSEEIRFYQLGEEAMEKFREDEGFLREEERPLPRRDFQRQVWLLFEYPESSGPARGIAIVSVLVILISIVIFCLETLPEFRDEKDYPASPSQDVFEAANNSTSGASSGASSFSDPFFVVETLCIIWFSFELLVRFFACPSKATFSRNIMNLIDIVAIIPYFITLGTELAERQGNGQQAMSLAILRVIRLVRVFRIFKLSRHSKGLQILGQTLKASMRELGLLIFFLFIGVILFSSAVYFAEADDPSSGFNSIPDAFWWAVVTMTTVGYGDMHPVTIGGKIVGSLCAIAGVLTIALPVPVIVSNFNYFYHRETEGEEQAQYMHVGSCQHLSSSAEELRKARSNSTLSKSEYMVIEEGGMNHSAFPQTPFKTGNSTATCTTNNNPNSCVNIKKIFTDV
T1 sequence (P16389 whole entry): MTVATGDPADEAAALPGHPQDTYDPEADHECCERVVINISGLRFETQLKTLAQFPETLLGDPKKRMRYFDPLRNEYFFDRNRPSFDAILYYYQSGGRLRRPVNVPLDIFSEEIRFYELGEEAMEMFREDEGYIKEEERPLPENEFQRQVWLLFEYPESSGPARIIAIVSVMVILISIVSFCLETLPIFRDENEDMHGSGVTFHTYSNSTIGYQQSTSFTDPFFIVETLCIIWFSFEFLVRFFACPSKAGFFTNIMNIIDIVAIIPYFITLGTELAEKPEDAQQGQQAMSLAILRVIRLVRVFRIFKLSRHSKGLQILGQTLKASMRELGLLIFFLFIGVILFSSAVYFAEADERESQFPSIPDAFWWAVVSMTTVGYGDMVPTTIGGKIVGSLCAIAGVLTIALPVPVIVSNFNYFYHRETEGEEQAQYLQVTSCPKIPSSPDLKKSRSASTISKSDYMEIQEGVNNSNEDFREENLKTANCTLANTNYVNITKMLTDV

## CC[C@H](C)[C@@H]1NC(=O)[C@@H]2CSSC[C@H](NC(=O)[C@H](CO)NC(=O)[C@@H](N)C(C)C)C(=O)N[C@@H]([C@@H](C)O)C(=O)NCC(=O)N[C@@H](CO)C(=O)N[C@@H](CCCCN)C(=O)N[C@@H](CC(=O)O)C(=O)N[C@@H](CSSC[C@@H](C(=O)N[C@@H](CCCCN)C(=O)N[C@H]3CSSC[C@@H](C(N)=O)NC(=O)CNC(=O)[C@H](Cc4ccc(O)cc4)NC3=O)NC(=O)[C@H](CO)NC(=O)[C@H](CCCCN)NC(=O)[C@H](CC(N)=O)NC1=O)C(=O)N[C@@H](Cc1ccc(O)cc1)C(=O)N[C@@H](C)C(=O)N1CCC[C@H]1C(=O)N[C@H]1CSSC[C@H](NC(=O)CNC(=O)[C@H]([C@@H](C)O)NC(=O)[C@H](CCC(N)=O)NC(=O)[C@H](CCCCN)NC(=O)[C@H](CCCNC(=N)N)NC1=O)C(=O)N1CCC[C@H]1C(=O)N[C@@H](CC(N)=O)C(=O)N[C@@H](C)C(=O)N[C@@H](CCCCN)C(=O)N2 [MTX] (H-VSCTGSKDCYAPCRKQTGCPNAKCINKSCKCYGC-NH2; disulfide 3-24, 9-29, 13-19, 31-34)
[1]
  activity on Ca2+-activated K+ channels, e.g. apamin-sensitive SK channels: active
[2]
  activity on voltage-gated K+ channel subtypes including Kv1.2: active
[3]; other: intracerebroventricular
  LD50: 4 µg/kg
Rat Kv1.3 channels
  activity on rat Kv1.3 channels: active

## CC[C@H](C)[C@@H]1NC(=O)[C@@H]2CSSC[C@H](NC(=O)[C@H](CCCCN)NC(=O)[C@@H](NC(=O)[C@@H](N)CC(C)C)C(C)C)C(=O)N[C@@H](CCCNC(=N)N)C(=O)NCC(=O)N[C@@H]([C@@H](C)O)C(=O)N[C@@H](CO)C(=O)N[C@@H](CC(=O)O)C(=O)N[C@H]3CSSC[C@H](NC(=O)[C@H](CCSC)NC(=O)[C@H](CCCNC(=N)N)NC(=O)[C@H](CC(N)=O)NC1=O)C(=O)N[C@@H](CCCCN)C(=O)N[C@H]1CSSC[C@H](NC(=O)[C@@H]4CCCN4C(=O)[C@H](CCCNC(=N)N)NC(=O)CNC3=O)C(=O)N[C@@H](CCC(N)=O)C(=O)N[C@@H](CCC(N)=O)C(=O)N[C@@H](CCC(N)=O)C(=O)N[C@@H]([C@@H](C)O)C(=O)NCC(=O)N[C@@H](CSSC[C@@H](C(N)=O)NC(=O)CNC(=O)[C@H](Cc3ccc(O)cc3)NC1=O)C(=O)N1CCC[C@H]1C(=O)N[C@@H](CC(N)=O)C(=O)N[C@@H](CO)C(=O)N[C@@H](CCCCN)C(=O)N2 [Pi1] (H-LVKCRGTSDCGRPCQQQTGCPNSKCINRMCKCYGC-NH2; disulfide 4-25, 10-30, 14-32, 20-35; N-terminus and C-terminus assumed)
[1]
  activity on Ca2+-activated K+ channels, e.g. apamin-sensitive SK channels: active
[3]
  LD50: 10 µg/kg
Rat Kv1.3 channels
  activity on rat Kv1.3 channels: active on rat Kv1.3 channels contrary to synthetic Pi1

## CC[C@H](NC(=O)CNC(=O)[C@H](Cc1ccc(O)cc1)NC(=O)[C@@H]1CSSC[C@@H]2NC(=O)[C@@H]3CCCN3C(=O)[C@H](C)NC(=O)[C@H](Cc3ccc(O)cc3)NC(=O)[C@H](CC)NC(=O)[C@H](CC(=O)O)NC(=O)[C@H](CCCCN)NC(=O)[C@H](CO)NC(=O)CNC(=O)[C@H]([C@@H](C)O)NC(=O)[C@@H](NC(=O)[C@H](CO)NC(=O)[C@@H](N)C(C)C)CSSC[C@H](NC(=O)[C@H](CCCCN)NC(=O)[C@H](C)NC(=O)[C@H](CC(N)=O)NC(=O)[C@@H]3CCCN3C(=O)[C@H](CC)NC(=O)CNC(=O)[C@H]([C@@H](C)O)NC(=O)[C@H](CCC(N)=O)NC(=O)[C@H](CCCCN)NC(=O)[C@H](CCCNC(=N)N)NC2=O)C(=O)N[C@@H]([C@@H](C)CC)C(=O)N[C@@H](CC(N)=O)C(=O)N[C@@H](CCCCN)C(=O)N[C@@H](CO)C(=O)N[C@@H](CC)C(=O)N[C@@H](CCCCN)C(=O)N1)C(N)=O [[Abu9, 19, 29, 34]-MTX, VSCTGSKDAbuYAPCRKQTGAbuPNAKCINKSAbuKCYGAbu-NH2] (H-VSCTGSKD[Abu]YAPCRKQTG[Abu]PNAKCINKS[Abu]KCYG[Abu]-NH2; disulfide 3-24, 13-31)
[4]
  activity on Ca2+-activated K+ channels: remains active
[5]
  IC50: 42 nM
C57/BL6 mice; injected intracerebroventricularly, up to 1.25 mg/kg
  lethality/toxicity: neither lethal nor toxic

## CC[C@H](C)[C@@H]1NC(=O)[C@@H]2CSSC[C@H](NC(=O)[C@H](CO)NC(=O)[C@@H](N)C(C)C)C(=O)N[C@@H]([C@@H](C)O)C(=O)NCC(=O)N[C@@H](CO)C(=O)N[C@@H](CCCCN)C(=O)N[C@@H](CC(=O)O)C(=O)N[C@H]3CSSC[C@H](NC(=O)[C@H](CO)NC(=O)[C@H](CCCCN)NC(=O)[C@H](CC(N)=O)NC1=O)C(=O)N[C@@H](CCCCN)C(=O)N[C@H]1CSSC[C@H](NC(=O)[C@@H]4CCCN4C(=O)[C@H](C)NC(=O)[C@H](Cc4ccc(O)cc4)NC3=O)C(=O)N[C@@H](CCCNC(=N)N)C(=O)N[C@@H](CCC(N)=O)C(=O)N[C@@H](CCC(N)=O)C(=O)N[C@@H]([C@@H](C)O)C(=O)NCC(=O)N[C@@H](CSSC[C@@H](C(N)=O)NC(=O)CNC(=O)[C@H](Cc3ccc(O)cc3)NC1=O)C(=O)N1CCC[C@H]1C(=O)N[C@@H](CC(N)=O)C(=O)N[C@@H](C)C(=O)N[C@@H](CCCCN)C(=O)N2 [[Q15]-MTX] (H-VSCTGSKDCYAPCRQQTGCPNAKCINKSCKCYGC-NH2; disulfide 3-24, 9-29, 13-31, 19-34)
C57/BL6 mice; injected intracerebroventricularly at active concentrations
  lethality/toxicity: neither lethal nor toxic

## HsTx1
[1]
  activity on Ca2+-activated K+ channels, e.g. apamin-sensitive SK channels: inactive
